In PubChem BioAssay AID2060506 (Molecular Pharmacology Branch, DTP, NCI, 2025):

Tested on: 598228-144-R-J1-PDC complex spheroid viability
Experiment: Anticancer human tumor 598228-144-R-J1-PDC patient-derived serous endometrial adenocarcinoma cell line growth inhibition [GQUAD]
Conditions: for IC50: curve of first compound; for viability, T/C: stronger effect = lower value
Excerpt: DNA G-quadruplex Stabilizer Agents in Combinations in Complex Spheroids
A high-throughput screen of multi-cell type tumor spheroids was designed to identify active combinations of DNA G-quadruplex stabilizer agents and targeted small molecules. Complex spheroids include a stromal component modeled by human endothelial cells (HUVEC) and fibroblasts modeled by human mesenchymal stem cells (MSCs). The concentration ranges selected for each drug and investigational agent were based upon clinically achievable concentrations if the clinical Cmax of the agent was known.
Compounds. The drugs and investigational agents: pidnarulex (CX-5461; NSC782164), APTO-253 (NSC789042), BRACO-19 (NSC847499), peposertib (NSC802822), ceralasertib (NSC780249), elimusertib (NSC800525), camonsertib (NSC841442), AZD-1390 (NSC803789), olaparib (NSC753686), talazoparib (NSC767125), ART-558 (NSC835418), sotorasib (NSC818433), MRTX-1133 (NSC836407), SN-38 (NSC673596), topotecan (NSC609699), etoposide (NSC141540), doxorubicin (NSC123127), gemcitabine (NSC613327), 5-fluorouracil (NSC19893), paclitaxel (NSC125973), vemurafenib (NSC761431), panobinostat (NSC761190), R-306465 (JNJ-16241199; NSC773264), adavosertib (NSC754352), TP-3654 (NSC805149), carboplatin (NSC241240), KSQ-4279 (NSC840948), and staurosporine (NSC755774) were obtained from the National Cancer Institute (NCI) Developmental Therapeutics Program Chemical Repository (34). The FDA-approved anticancer drug set is available from the NCI Developmental Therapeutics Program. […] The stock solutions were prepared in dimethyl sulfoxide (DMSO, Sigma-Aldrich, St. Louis, MO, cat. D2650) at 800-fold the tested concentration and stored at -70 degrees C prior to their use. All drugs and investigational agents were tested over a range starting from a high concentration at or near the clinical Cmax and decreasing in half-log increments. If the clinical Cmax for an agent had not been determined, the highest concentration tested was 10 microM.
2.3 Cell Culture. All cells were maintained in an incubator at 37 degrees C and 5% CO2 with 95% humidity. The PDC lines were cultured according to standard operating procedures established by the NCI PDMR. All PDCs were thawed and cultured in Matrigel-coated flasks prepared with a working solution of 1X Ham's F-12 nutrient mix, without supplementation (Invitrogen, cat. 11765054), 100 U/mL penicillin-streptomycin (Invitrogen, cat. 15140122), and 2.5% Matrigel (Corning Inc., cat. 354248) for the first three passages. The 857933-349-R-J2-PDC line was cultured in 6C/Colon 1B media, which includes advanced DMEM/F-12 (Thermo Fisher Scientific, cat. 12634028), 10 mM HEPES (Thermo Fisher Scientific, cat. 15630080), 1X GlutaMAX supplement (Thermo Fisher Scientific, cat. 35050061), 0.1 mg/mL primocin (InvivoGen, cat. ant-pm-2), 10% defined fetal bovine serum, heat inactivated (HyClone Laboratories Inc., cat. SH30070.03HI), 50% L-WRN conditioned media (ATCC, cat. CRL-3276), 1.25 mM N-Acetyl-L-cysteine (Sigma-Aldrich, cat. A9165), 10 mM nicotinamide (Sigma-Aldrich, cat. N0636), 1X B-27 supplement (Thermo Fisher Scientific, cat. 17504044), 1X N-2 supplement (Thermo Fisher Scientific, cat. 17502048), 10 microM Y-27632 dihydrochloride (Tocris Bioscience, cat. 1254), and 50 ng/mL human EGF recombinant protein (Thermo Fisher Scientific, cat. PHG0311). The 485176-168-R4-J1-PDC line was cultured in Panc media, which includes all 6C/Colon 1B media components plus 100 ng/mL human FGF-10 (Thermo Fisher Scientific, cat. 100-26), 500 nM SB-431542 (Selleckchem, cat. S1067), and gastrin (Tocris, cat. 3006).
[…]

[1] = second compound 0.0316 µM, first compound 0.000999 µM
[2] = second compound 0.0316 µM, first compound 0.00316 µM
[3] = second compound 0.0316 µM, first compound 0.00999 µM
[4] = second compound 0.0316 µM, first compound 0.0316 µM
[5] = second compound 0.0316 µM, first compound 0.0999 µM
[6] = second compound 0.0316 µM, first compound 0.316 µM
[7] = second compound 0.1 µM, first compound 0.000999 µM
[8] = second compound 0.1 µM, first compound 0.00316 µM
[9] = second compound 0.1 µM, first compound 0.00999 µM
[10] = second compound 0.1 µM, first compound 0.0316 µM
[11] = second compound 0.1 µM, first compound 0.0999 µM
[12] = second compound 0.1 µM, first compound 0.316 µM
[13] = second compound 0.316 µM, first compound 0.000999 µM
[14] = second compound 0.316 µM, first compound 0.00316 µM
[15] = second compound 0.316 µM, first compound 0.00999 µM
[16] = second compound 0.316 µM, first compound 0.0316 µM
[17] = second compound 0.316 µM, first compound 0.0999 µM
[18] = second compound 0.316 µM, first compound 0.316 µM
[19] = second compound 1 µM, first compound 0.000999 µM
[20] = second compound 1 µM, first compound 0.00316 µM
[21] = second compound 1 µM, first compound 0.00999 µM
[22] = second compound 1 µM, first compound 0.0316 µM
[23] = second compound 1 µM, first compound 0.0999 µM
[24] = second compound 1 µM, first compound 0.316 µM
[25] = second compound 3.16 µM, first compound 0.000999 µM
[26] = second compound 3.16 µM, first compound 0.00316 µM
[27] = second compound 3.16 µM, first compound 0.00999 µM
[28] = second compound 3.16 µM, first compound 0.0316 µM
[29] = second compound 3.16 µM, first compound 0.0999 µM
[30] = second compound 3.16 µM, first compound 0.316 µM
[31] = second compound 10 µM, first compound 0.000999 µM
[32] = second compound 10 µM, first compound 0.00316 µM
[33] = second compound 10 µM, first compound 0.00999 µM
[34] = second compound 10 µM, first compound 0.0316 µM
[35] = second compound 10 µM, first compound 0.0999 µM
[36] = second compound 10 µM, first compound 0.316 µM
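Note: spheroids exposed to the agents for one week before reading.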
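Throughout, for viability, T/C: percent of vehicle DMSO control viability so 100% = untreated growth.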

With CCc1c2c(nc3ccc(O)cc13)-c1cc3c(c(=O)n1C2)COC(=O)[C@]3(O)CC + Cc1cnc(CNC(=O)c2c(=O)c3ccc(N4CCCN(C)CC4)nc3n3c2sc2ccccc23)cn1 as the compound, how does the IC50 (second compound 0.0316 µM) read?
The IC50 was 18 nM.

And the IC50 (second compound 0.1 µM)?
Its IC50 is 14.9 nM.

What about the IC50 (second compound 0.316 µM) of the same compound?
The IC50 was 16.4 nM.

What about the IC50 (second compound 1 µM) of the same compound?
The IC50 was 22.2 nM.

And the IC50 (second compound 3.16 µM)?
The IC50 was 12.8 nM.

And the IC50 (second compound 10 µM)?
The IC50 was < 0.999 nM.

What about the viability, T/C [1] of the same compound?
Its viability, T/C is 62.5%.

What about the viability, T/C [2] of the same compound?
The viability, T/C was 68%.

What about the viability, T/C [3] of the same compound?
The viability, T/C was 55.6%.

And the viability, T/C [4]?
Its viability, T/C is 42.6%.

And the viability, T/C [5]?
Its viability, T/C is 27.3%.

And the viability, T/C [6]?
Its viability, T/C is 15.3%.

And the viability, T/C [7]?
The viability, T/C was 58.7%.

And the viability, T/C [8]?
Its viability, T/C is 56.1%.

What about the viability, T/C [9] of the same compound?
Its viability, T/C is 60.4%.

What about the viability, T/C [10] of the same compound?
Its viability, T/C is 34.1%.

What about the viability, T/C [11] of the same compound?
The viability, T/C was 22.6%.

What about the viability, T/C [12] of the same compound?
The viability, T/C was 15%.

What about the viability, T/C [13] of the same compound?
Its viability, T/C is 69.3%.

What about the viability, T/C [14] of the same compound?
The viability, T/C was 76.8%.

What about the viability, T/C [15] of the same compound?
The viability, T/C was 45.4%.

And the viability, T/C [16]?
Its viability, T/C is 47.3%.

What about the viability, T/C [17] of the same compound?
The viability, T/C was 21.5%.

And the viability, T/C [18]?
Its viability, T/C is 2.76%.

What about the viability, T/C [19] of the same compound?
Its viability, T/C is 68.5%.

And the viability, T/C [20]?
The viability, T/C was 63.5%.

And the viability, T/C [21]?
The viability, T/C was 64.2%.

What about the viability, T/C [22] of the same compound?
Its viability, T/C is 43.3%.

And the viability, T/C [23]?
The viability, T/C was 19.6%.

And the viability, T/C [24]?
Its viability, T/C is 0.43%.

And the viability, T/C [25]?
Its viability, T/C is 70.3%.

What about the viability, T/C [26] of the same compound?
The viability, T/C was 63%.

And the viability, T/C [27]?
The viability, T/C was 55.8%.

What about the viability, T/C [28] of the same compound?
The viability, T/C was 27.9%.

What about the viability, T/C [29] of the same compound?
The viability, T/C was 0.43%.

And the viability, T/C [30]?
Its viability, T/C is 0.31%.

What about the viability, T/C [31] of the same compound?
The viability, T/C was 54%.

What about the viability, T/C [32] of the same compound?
The viability, T/C was 39.5%.

And the viability, T/C [33]?
The viability, T/C was 44%.

And the viability, T/C [34]?
Its viability, T/C is 1.02%.

What about the viability, T/C [35] of the same compound?
The viability, T/C was 0.4%.

What about the viability, T/C [36] of the same compound?
The viability, T/C was 0.35%.

Which results are given for Cc1[nH]c2ccccc2c1CCNCc1ccc(/C=C/C(=O)NO)cc1 + Cc1cnc(CNC(=O)c2c(=O)c3ccc(N4CCCN(C)CC4)nc3n3c2sc2ccccc23)cn1?
IC50 (second compound 0.0316 µM): 54.4 nM; IC50 (second compound 0.1 µM): 20.2 nM; IC50 (second compound 0.316 µM): 16.1 nM; IC50 (second compound 1 µM): 11.6 nM; IC50 (second compound 3.16 µM): < 0.999 nM; IC50 (second compound 10 µM): < 0.999 nM; viability, T/C [1]: 104%; viability, T/C [2]: 116%; viability, T/C [3]: 85.1%; viability, T/C [4]: 67.3%; viability, T/C [5]: 32.4%; viability, T/C [6]: 0.76%; viability, T/C [7]: 80.7%; viability, T/C [8]: 71.8%; viability, T/C [9]: 61.1%; viability, T/C [10]: 41.6%; viability, T/C [11]: 26.2%; viability, T/C [12]: 0.82%; viability, T/C [13]: 69%; viability, T/C [14]: 66.9%; viability, T/C [15]: 53.3%; viability, T/C [16]: 43.7%; viability, T/C [17]: 18.4%; viability, T/C [18]: 0.28%; viability, T/C [19]: 62.7%; viability, T/C [20]: 67.1%; viability, T/C [21]: 49.7%; viability, T/C [22]: 29.8%; viability, T/C [23]: 0.26%; viability, T/C [24]: 0.37%; viability, T/C [25]: 49.4%; viability, T/C [26]: 49.4%; viability, T/C [27]: 39.9%; viability, T/C [28]: 0.32%; viability, T/C [29]: 0.34%; viability, T/C [30]: 0.25%; viability, T/C [31]: 20.6%; viability, T/C [32]: 16.2%; viability, T/C [33]: 0.43%; viability, T/C [34]: 0.33%; viability, T/C [35]: 0.34%; viability, T/C [36]: 0.31%
